“Also recorded” adds a separate entry of the source. Where two headings read alike, the source gives them in different places.
Legend:
[1] = tested on: F9 cells; assay: Priming of [3H]GlcN-labeled oligosaccharides in F9 cells; assay type: cell-based, mouse; conditions: for Priming of oligosaccharides (in words) / Priming: F9 cells; for Priming of oligosaccharides (in words): [3H]GlcN; for Priming: Table I, per μg cell protein, control value (30) subtracted; for Fraction of labeled oligosaccharides that were charged (bound to QAE-Sephadex): anion-exchange chromatography
[2] = tested on: sLe^x on HL-60 cells; assay: FACS of sLe^x expression on HL-60 cells with mAb CSLEX-1; assay type: cell-based, human; conditions: for Inhibition of sialyl Lewis X formation in HL-60 cells (in words): concentration not given
[3] = tested on: HL-60 adhesion to activated human umbilical vein endothelial cells (HUVEC); assay: Adhesion of HL-60 cells to TNF-α-activated HUVEC; assay type: cell-based; conditions: for Inhibition of HL-60 / leukocyte adhesion (in words): TNF-α-treated HUVEC, concentration not given
[4] = tested on: F9 cells; assay: Uptake of disaccharides by F9 cells, fluorescence assay; assay type: in vitro ADME, mouse; conditions: for Uptake: Table I, control value without glycoside (1.0) subtracted
[5] = tested on: Chinese hamster ovary cells; assay: Uptake of glycosides by Chinese hamster ovary cells, fluorescence assay; conditions: for Uptake (in words): CHO cells, 37° C., FIG. 1 and 2 (100 μM in FIG. 2); for Uptake: relative to Xylβ-0-2-naphthol 1.0 unit
Experimental: Confluent monolayers of Chinese hamster ovary cells were incubated with the indicated concentrations of Xylβ-0-2-naphthol at 37° C. for 30 minutes. The amount of glycoside taken up was determined by fluorescence assay.
The various glycosides were added (100 μM) to confluent Chinese hamster ovary cell monolayers and at the times indicated, the amount of glycoside taken up was quantitated by fluorescence assay. Filled circles: Xylβ-0-2-naphthol; filled square: Galβ-0-2-naphthol; unfilled triangle: Galβ1→4Xylβ-0-2-naphthol; filled triangle: Galβ1 →3Galβ0-2-naphthol.
Compounds were dissolved in DMSO and added to growth medium such that the final concentration of vehicle was 0.5% (v/v). Confluent cells were incubated with supplemented growth medium at 37° C. for various times. The cultures were placed on ice, the medium was aspirated and the cells were washed three times with cold PBS containing 1 mg/ml of bovine serum albumin. Cells were solubilized in a small volume of 0.1M NaOH and the extracts were neutralized with one mole equivalent of acetic acid. After centrifuging the samples, the supernatants were applied to Sep-Pak Plus C18 cartridges (Waters Associates) and washed with water (10 ml) and 20% (v/v) methanol in water (5 ml). Bound material was eluted with 5 ml of 40% (v/v) methanol in water and concentrated to dryness. The residue was dissolved in methanol and its fluoresence was measured (SLM-Aminco Instruments). The excitation and emission wavelengths for 2-naphthol derivatives were 293 nm and 395 nm, respectively. Phenanthrol derivatives were excited at 310 nm and the emission was measured at 365 nm.
Animal cells take up β-D-xylosides and prime glycosaminoglycan chains with great efficiency. For priming to occur, the glycoside must pass though the plasma membrane and enter the Golgi where the glycosyltransferases reside. […] Xylβ-0-2-naphthol has three hydroxyl groups, whereas Gal-0-2-naphtholhas four.

[6] = tested on: pgsA-745 cells (xylosyltransferase deficient Chinese hamster ovary cells); assay: Priming of [35S]glycosaminoglycan chains in xylosyltransferase-deficient CHO mutant pgsA-745 cells; assay type: cell-based; conditions: FIG. 3, 5 hours at 37° C.; for Priming of glycosaminoglycan chains (in words): up to 500 μM; for minimal effective concentration: Cricetulus griseus, read-out: Concentration at which glycosaminoglycan chains are primed
Experimental: Various compounds at the indicated concentrations were provided to confluent Chinese hamster ovary cells in a 96 well plate. Glycosaminoglycan synthesis was measured by autoradiography of [^35 S]-glycosaminoglycan collected on a postively charged nylon membrane. 1: Xylβ-0-2-naphthol; 2: Xylβ1→6Gal-0-2-naphthol; 3: Xylβ1→6Gal(Me)-0-2-naphthol; 4: Xylβ1→6Gal(Me)2 -0-2-naphthol; 5: Xylβ1→6Gal(Me)3 -0-2-naphthol; 6: Xyl(Ac)3 β-0-2-naphthol; 7:Xyl(Ac)3 β1→6Gal(Ac)3 -0-2-naphthol.
Priming of glycosaminoglycan chains was measured in pgsA-745 cells deficient in xylosyltransfersase. The cells were grown to confluence in 96-well microtiter plates (Falcon). Fresh medium (0.2 ml) containing 50 μCi/ml of H2^35 SO4 (25-40 Ci/mg) and the test compounds were added to the wells. The top row of wells contained […] of glycoside and each subsequent row contained a serial dilution (1:3^n, v/v). Cells were incubated for 5 hours at 37° C. and solubilized by adding 20 μl of 0.5M NaOH. The individual wells were adjusted to 0.2% (w/v) Zwittergent 3-12, 25 μg/ml chondroitin sulfate, 0.2M acetic acid and 10 mM Na2 SO4. The samples were transferred to a GeneScreen Plus membrane (Dupont-NEN) placed on top of a piece of 1Chr paper on a vacuum Minifold (Schleicher & Schuell). A wash solution of 0.2% (w/v) Zwittergent 3-12, 0.2M acetic acid and 10 mM Na2 SO4 (0.5 ml) was passed through each well. The membranes were removed from the Minifold, soaked for 5 minutes in 20 ml of wash solution, air-dried and exposed to RX X-ray film for 10-18 hours.
Therefore, uptake of the disaccharide was measured indirectly by the determining the incorporation of ^35 SO4 into glycosaminoglycan chains. To distinguish glycosaminoglycans produced on the glycoside from those made on endogenous proteoglycans, a Chinese hamster ovary cell mutant deficient in xylosyltransferase was made. […] [^35 S]glycosaminoglycan synthesis was measured by incubating mutant cells in a 96 well plate with glycoside derivatives at different doses. The cells and spent media were then transferred to a positively charged nylon membrane to detect newly made chains by autoradiography.

[7] = tested on: basic fibroblast growth factor; conditions: background; cited from earlier work
[8] = listed as peracetylated Galβ1→4GlcNAcβ-0-2-naphthalenemethanol
[9] = listed as acetylated Galβ1→4GlcNAcβ-0-2-naphthalenemethanol

Q: What does the source list for `CC(=O)N[C@H]1[C@H](O[C@H]2[C@@H](OC(C)=O)[C@@H](COC(C)=O)O[C@@H](OCc3ccc4ccccc4c3)[C@@H]2OC(C)=O)O[C@H](COC(C)=O)[C@@H](OC(C)=O)[C@@H]1OC(C)=O` [AcGlcNAcGal-NM, Peracetylated GlcNAcβ1-3Galβ-0-naphthalenemethanol]?
A: Fold [3H]GlcN-labeled oligosaccharides primed compared with AcLacNAc-NM ([1]; >25 μM): ~10 -fold; Priming of oligosaccharides (in words) [1]: much more active than AcLacNAc-NM at low dose; Priming of oligosaccharides (in words) ([1]; listed as Acetylated GlcNAcβ1→3Galβ-O-naphthalenemethanol): primes oligosaccharides and inhibits cell adhesion more efficiently than acetylated Galβ1→4GlcNAcβ-X-naphthalenemethanol; Priming of oligosaccharides (in words) ([1]; listed as acetylated GlcNAcβ1→3Galβ-O-naphthalenemethanol): prime oligosaccharides in cultured cells; Inhibition of sialyl Lewis X formation in HL-60 cells (in words) [2]: inhibit the formation of sialyl Lewis X; Inhibition of HL-60 / leukocyte adhesion (in words) [3]: inhibits cell adhesion more efficiently than acetylated Galβ1→4GlcNAcβ-X-naphthalenemethanol

Q: What does the source list for `CC(=O)N[C@H]1[C@H](OCc2ccc3ccccc3c2)O[C@H](COC(C)=O)[C@@H](O[C@@H]2O[C@H](COC(C)=O)[C@H](OC(C)=O)[C@H](OC(C)=O)[C@H]2OC(C)=O)[C@@H]1OC(C)=O` [AcLacNAc-NM, acetylated Galβ1→4GlcNAcβ-O-naphthalenemethanol]?
A: Priming of oligosaccharides (in words) [1]: primed oligosaccharides in F9 cells; also recorded: A significant lag phase preceded priming of oligosaccharides; Priming of oligosaccharides (in words) ([1]; listed as acetylated Galβ1→4GlcNAcβ-O-naphthalenemethanol): prime oligosaccharides in cultured cells; Priming of oligosaccharides (in words) [1, 8]: A large amount of labeled material was generated; Priming [1]: 250 ^3 H-cpm/μg; Fraction of labeled oligosaccharides that were charged (bound to QAE-Sephadex) [1]: About 25%; Fraction of labeled oligosaccharides that were charged (bound to QAE-Sephadex) [1, 8]: approximately 25%; sLe^x expression on the cell surface, FACS (in words) ([2]; 200 μM acetylated sugars, 40 hours / two days, mAb CSLEX-1): the cell population shifted to a lower mean fluorescence; Inhibition of sialyl Lewis X formation in HL-60 cells (in words) [2]: inhibit the formation of sialyl Lewis X; Inhibition of sialyl Lewis X formation in HL-60 cells (in words) [2, 9]: inhibition of sLe^x expression on the surface of HL-60 cells; Fold reduction in attached HL-60 cells ([3]; 100 μM AcLacNAc-NM, TNF-α HUVEC, static): 8 -fold; Inhibition of HL-60 / leukocyte adhesion (in words) [3]: reduced adhesion; Inhibition of HL-60 / leukocyte adhesion (in words) [3, 9]: The decrease in sLe^x expression had a corresponding effect on cell adhesion; Uptake (in words) [4]: nearly as well as non-acetylated pentosides linked to naphthol; Uptake [4]: 6.4 Arbitray units; Uptake (in words) [4, 8]: nearly as efficient as Xylβ-0-napthol

Q: With `OC[C@H]1O[C@@H](O[C@H]2[C@@H](O)[C@@H](CO)O[C@@H](Oc3ccc4ccccc4c3)[C@@H]2O)[C@H](O)[C@@H](O)[C@H]1O` [Galβ1→3Galβ-0-2-naphthol] as the compound, how does the “Uptake (in words)” value [5] read?
A: Its value is “not taken up al all”.

Q: For `OC[C@H]1O[C@@H](O[C@H]2[C@@H](O)[C@@H](CO)O[C@@H](Oc3cc4ccccc4c4ccccc34)[C@@H]2O)[C@H](O)[C@@H](O)[C@H]1O` [Galβ1→3Galβ-0-9-phenanthrol], which Uptake [5] is on record?
A: Its Uptake is “less than 0.1 unit of fluorescence”.

Q: With `CC(=O)N[C@H]1[C@H](OCc2ccc3ccccc3c2)O[C@H](CO)[C@@H](O[C@@H]2O[C@H](CO)[C@H](O)[C@H](O)[C@H]2O)[C@@H]1O` [Galβ1→4GlcNAcβ-0-naphthalenemethanol, Galβ1→4GlcNAcβ-0-2-naphthalenemethanol] as the compound, how does the “Priming of oligosaccharides (in words)” value [1] read?
A: The value was “increases with time and does not saturate for several hours”.

Q: What about the Priming [1] of the same compound?
A: The Priming was 20 ^3 H-cpm/μg.

Q: And the “Uptake (in words)” value [4]?
A: Its value is “very limited”.

Q: And the Uptake [4]?
A: The Uptake was 0.5 Arbitray units.

Q: Which “Uptake (in words)” value [5] does the source give for `OC[C@H]1O[C@@H](O[C@@H]2CO[C@@H](Oc3ccc4ccccc4c3)[C@H](O)[C@H]2O)[C@H](O)[C@@H](O)[C@H]1O` [Galβ1→4Xylβ-0-2-naphthol] here?
A: Its value is “not taken up al all”.

Q: With `OC[C@H]1O[C@@H](Oc2ccc3ccccc3c2)[C@H](O)[C@@H](O)[C@H]1O` [Galβ-0-2-naphthol] as the compound, how does the “Uptake (in words)” value [5] read?
A: Its value is “slow and reached a lower steady-state level”.

Q: What about the Uptake [5] of the same compound?
A: The Uptake was 0.3 unit of fluorescence.

Q: Which Uptake [5] does the source give for `OC[C@H]1O[C@@H](Oc2cc3ccccc3c3ccccc23)[C@H](O)[C@@H](O)[C@H]1O` [Galβ-0-9-phenanthrol] here?
A: Its Uptake is 4.2 unit of fluorescence.

Q: What does the source list for `O[C@@H]1[C@@H](O)[C@@H](Oc2ccc3ccccc3c2)OC[C@@H]1O` [L-Araβ-0-2-naphthol, L-Araα-0-2-naphthol]?
A: Uptake (in words) [5]: diffuse more readily than hexosides; Uptake [5]: 0.8 unit of fluorescence

Q: For `CC(=O)O[C@@H]1[C@@H](OC(C)=O)[C@H](Oc2ccc3ccccc3c2)OC[C@H]1OC(C)=O` [Xyl(Ac)3 β-0-2-naphthol], which “Priming of glycosaminoglycan chains (in words)” value [6] is on record?
A: Its value is “somewhat less effectively than the non-acetylated compound”.

Q: For `CO[C@H]1[C@@H](OC)[C@@H](CO[C@@H]2OC[C@@H](O)[C@H](O)[C@H]2O)O[C@@H](Oc2ccc3ccccc3c2)[C@@H]1OC` [Xylβ1→6Gal(Me)3-0-2-naphthol], which minimal effective concentration [6] is on record?
A: The minimal effective concentration was < 1 µM.

Q: And the “Priming of glycosaminoglycan chains (in words)” value [6]?
A: Its value is “nearly as well as Xylβ-0-2-napthol”.

Q: With `O[C@H]1[C@@H](O)[C@@H](CO[C@@H]2OC[C@@H](O)[C@H](O)[C@H]2O)O[C@@H](Oc2ccc3ccccc3c2)[C@@H]1O` [Xylβ1→6Galβ-0-2-naphthol] as the compound, how does the “Priming of glycosaminoglycan chains (in words)” value [6] read?
A: The value was “did not prime [^35 S]-glycosaminoglycans even at 500 μM”.

Q: Which results are given for `O[C@@H]1[C@@H](O)[C@H](Oc2ccc3ccccc3c2)OC[C@H]1O` [Xylβ-0-2-naphthol]?
A: Binding of primed heparan sulfate chains to basic fibroblast growth factor (in words) [7]: will bind to basic fibroblast growth factor; Uptake (in words) [5]: diffuse more readily than hexosides; also recorded: occurs by diffusion; also recorded: depended on concentration and did not saturate; Time for uptake to reach a plateau ([5]; FIG. 2, 100 μM): less than one minute; Uptake [5]: 1.0 unit of fluorescence; Uptake [4]: 9.0 Arbitray units; Priming of glycosaminoglycan chains (in words) [6]: primed chains efficiently

Q: For `CC(=O)O[C@H]1[C@@H](OC(C)=O)[C@@H](CO[C@@H]2OC[C@@H](OC(C)=O)[C@H](OC(C)=O)[C@H]2OC(C)=O)O[C@@H](Oc2ccc3ccccc3c2)[C@@H]1OC(C)=O` [peracetylated Xylβ1→6Galβ-0-2-naphthol, Xyl(Ac)3 β1→6Gal(Ac)3-0-2-naphthol], which minimal effective concentration [6] is on record?
A: Its minimal effective concentration is ~6 µM.

Q: For Xylβ1→6Gal(Me)2 -0-2-naphthol, which “Concentration at which glycosaminoglycan chains are primed” value [6] is on record?
A: The value was 2 to 6 µM.

Q: Which “Concentration of maximum effect on 35S-glycosaminoglycan synthesis” value [6] does the source give for Xylβ1→6Gal(Me)-0-2-naphthol here?
A: Its value is “approximately 60 μM”.

Q: And the “Priming of glycosaminoglycan chains (in words)” value [6]?
A: Its value is “Higher concentrations were less effective”.
